According to ChEMBL document CHEMBL2010766, “Bivalent Ligands for the Serotonin 5-HT3 Receptor” (ACS Med Chem Lett, 2011):

The compounds below were run against T1, 5-hydroxytryptamine receptor 3A (Rattus norvegicus, UniProt P35563) (assay: Displacement of [3H]granisetron from 5HT3 receptor in Wistar rat cortical membranes by liquid scintillation spectrometry).
T1 sequence (P35563 whole entry): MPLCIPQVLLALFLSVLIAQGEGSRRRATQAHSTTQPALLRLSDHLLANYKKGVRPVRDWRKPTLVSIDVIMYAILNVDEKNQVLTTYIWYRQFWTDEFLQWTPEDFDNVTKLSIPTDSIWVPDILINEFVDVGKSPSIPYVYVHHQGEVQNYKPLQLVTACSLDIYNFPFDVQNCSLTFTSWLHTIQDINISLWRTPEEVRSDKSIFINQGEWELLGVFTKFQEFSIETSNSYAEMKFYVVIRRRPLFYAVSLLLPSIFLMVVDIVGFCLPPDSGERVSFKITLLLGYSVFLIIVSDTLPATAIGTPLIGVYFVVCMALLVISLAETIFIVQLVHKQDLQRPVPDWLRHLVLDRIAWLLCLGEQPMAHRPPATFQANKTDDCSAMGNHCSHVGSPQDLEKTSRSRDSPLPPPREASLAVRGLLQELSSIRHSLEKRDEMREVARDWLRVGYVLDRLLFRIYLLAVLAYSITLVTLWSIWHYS
Format: cell membranes, Membrane
Compound `Cc1c(N2CCN(C)CC2)nc2ccccc2c1C(=O)NCCOCCOCCNC(=O)c1c(C)c(N2CCN(C)CC2)nc2ccccc12` has a Ki of 7.7 nM. `Cc1c(N2CCN(C)CC2)nc2ccccc2c1C(=O)NCCCCCCCNc1c2c(nc3ccccc13)CCCC2` showed a Ki of 5.6 nM. `Cc1c(N2CCN(C)CC2)nc2ccccc2c1C(=O)NCCOCCOCCNC(=O)OC(C)(C)C` showed a Ki of 132 nM. `Cc1c(N2CCN(C)CC2)nc2ccccc2c1C(=O)NCCCCCCNC(=O)c1c(C)c(N2CCN(C)CC2)nc2ccccc12` was tested, and the Ki was 28 nM. `Cc1c(N2CCN(C)CC2)nc2ccccc2c1C(=O)NCCCCCCNC(=O)OC(C)(C)C` gave a Ki of 178 nM. `Cc1c(N2CCN(C)CC2)nc2ccccc2c1C(=O)NCCOCCOCCOCCOCCOCCOCCOCCNC(=O)c1c(C)c(N2CCN(C)CC2)nc2ccccc12` showed a Ki of 27 nM. In the case of `Cc1c(N2CCN(C)CC2)nc2ccccc2c1C(=O)NCCCCCCCCNc1c2c(nc3ccccc13)CCCC2`, the Ki is reported as 69 nM. For `Cc1c(N2CCN(C)CC2)nc2ccccc2c1C(=O)NCCOCCOCCNC(=O)NC[13C](=O)O`, the Ki was 141 nM. `Cc1c(N2CCN(C)CC2)nc2ccccc2c1C(=O)NCCOCCOCCOCCOCCOCCOCCOCCNC(=O)NC[13C](=O)O` was tested, and the Ki was 106 nM. Work on `Cc1c(N2CCN(C)CC2)nc2ccccc2c1C(=O)NCCOCCOCCOCCOCCOCCOCCOCCOCCOCCNC(=O)c1c(C)c(N2CCN(C)CC2)nc2ccccc12` yielded a Ki of 15 nM. `Cc1c(N2CCN(C)CC2)nc2ccccc2c1C(=O)NCCOCCOCCOCCOCCOCCOCCOCCNC(=O)OC(C)(C)C` showed a Ki of 89 nM. Work on `Cc1c(N2CCN(C)CC2)nc2ccccc2c1C(=O)NCCOCCOCCOCCOCCOCCOCCOCCOCCOCCNC(=O)OC(C)(C)C` yielded a Ki of 71 nM. `Cc1c(N2CCN(C)CC2)nc2ccccc2c1C(=O)NCCCCCCCCNC(=O)c1c(C)c(N2CCN(C)CC2)nc2ccccc12` showed a Ki of 67 nM. For `Cc1c(N2CCN(C)CC2)nc2ccccc2c1C(=O)NCCCCCCCNC(=O)OC(C)(C)C`, the Ki was 18 nM. `Cc1c(N2CCN(C)CC2)nc2ccccc2c1C(=O)NCCCCCCCNC(=O)NC[13C](=O)O` was tested, and the Ki was 26 nM. For `Cc1c(N2CCN(C)CC2)nc2ccccc2c1C(=O)NCCCCCCNc1c2c(nc3ccccc13)CCCC2`, the Ki was 71 nM. Compound `Cc1c(N2CCN(C)CC2)nc2ccccc2c1C(=O)NCCCCCCCNC(=O)c1c(C)c(N2CCN(C)CC2)nc2ccccc12` has a Ki of 2.7 nM. `Cc1c(N2CCN(C)CC2)nc2ccccc2c1C(=O)NCCCCCCCCNC(=O)OC(C)(C)C` gave a Ki of 127 nM. `Cc1c(N2CCN(C)CC2)nc2ccccc2c1C(=O)NCCOCCOCCOCCOCCOCCOCCOCCOCCOCCNC(=O)NC[13C](=O)O` showed a Ki of 154 nM.
